Experimental findings from ChEMBL document CHEMBL1275295, “Synthesis of some p-toluenesulfonyl-hydrazinothiazoles and hydrazino-bis-thiazoles and their anticancer activity” (Eur J Med Chem, 2010) are described below.

Usually IC50 stands for the point on the concentration scale where inhibition reaches its midpoint. Low values mean inhibition by little substance, high ones a need for much substance. The term inhibition denotes the share of the control response that was lost under treatment. Read a high inhibition as strong suppression.

Test [1] concerns HepG2. Put plainly: Inhibition of proliferation of human HepG2 cells after 72 hrs by XTT assay. The conditions noted are these: HepG2, 72 h. Format: functional, cell-based. (In general: Formazan colour is commonly taken as a measure of viable cells.)
For test [2], the system named is DU-145. Put plainly: Inhibition of proliferation of human DU145 cells after 72 hrs by XTT assay. Format: functional, cell-based. The conditions noted are these: DU-145, 72 h.
The subject of test [3] is HepG2. Nature of the test: Inhibition of proliferation of human HepG2 cells at 36.2 uM after 72 hrs by XTT assay. Format: functional. The conditions noted are these: HepG2, 72 h.
For test [4], the system named is DU-145. Nature of the test: Inhibition of proliferation of human DU145 cells at 44.2 uM after 72 hrs by XTT assay. Format: functional. The conditions noted are these: DU-145, 72 h.
In test [5] the test system is HepG2. Put plainly: Inhibition of proliferation of human HepG2 cells at 51 uM after 72 hrs by XTT assay. Format: functional. The conditions noted are these: HepG2, 72 h.
Test [6] concerns DU-145. Put plainly: Inhibition of proliferation of human DU145 cells at 36.2 uM after 72 hrs by XTT assay. Format: functional. As to conditions: DU-145, 72 h.
Test [7] deals with HepG2. Nature of the test: Inhibition of proliferation of human HepG2 cells at 72.5 uM after 72 hrs by XTT assay. The conditions noted are these: HepG2, 72 h. Format: functional.
The test system of test [8] is DU-145. Nature of the test: Inhibition of proliferation of human DU145 cells at 102 uM after 72 hrs by XTT assay. The conditions noted are these: DU-145, 72 h. Format: functional.
The test system of test [9] is HepG2. Nature of the test: Inhibition of proliferation of human HepG2 cells at 44.2 uM after 72 hrs by XTT assay. Format: functional. As to conditions: HepG2, 72 h.
In test [10] the test system is HepG2. Put plainly: Inhibition of proliferation of human HepG2 cells at 35.2 uM after 72 hrs by XTT assay. Format: functional. As to conditions: HepG2, 72 h.
Test [11] deals with DU-145. Nature of the test: Inhibition of proliferation of human DU145 cells at 35.2 uM after 72 hrs by XTT assay. Format: functional. The conditions noted are these: DU-145, 72 h.
The test system of test [12] is HepG2. Put plainly: Inhibition of proliferation of human HepG2 cells at 34.1 uM after 72 hrs by XTT assay. Format: functional. As to conditions: HepG2, 72 h.
The test system of test [13] is DU-145. Put plainly: Inhibition of proliferation of human DU145 cells at 34.1 uM after 72 hrs by XTT assay. Format: functional. The conditions noted are these: DU-145, 72 h.
Test [14] deals with DU-145. Nature of the test: Inhibition of proliferation of human DU145 cells at 38.5 uM after 72 hrs by XTT assay. Format: functional. As to conditions: DU-145, 72 h.

Turning to `CC(=O)c1sc(N(C(C)=O)N(C(C)=O)S(=O)(=O)c2ccc(C)cc2)nc1C`, the concentration for half-maximal inhibition (IC50) in test [1] came to 57.4 µM; in [2], 53.5 µM.
For `Cc1ccc(S(=O)(=O)NNc2nc(C)cs2)cc1`, the IC50 in [1] is less than 5.65 µM; in test [2], 6.96 µM. 36.2 µM produced 100% inhibition in [3]. Testing at 44.2 µM in test [4] gave an inhibition of 100%.
Turning to `CCOC(=O)Cc1csc(N(C(C)=O)N(C(C)=O)S(=O)(=O)c2ccc(C)cc2)n1`, the IC50 in test [1] is 11 µM; in test [2], 46.4 µM.
As for `O=C(NNc1nc(CCl)cs1)c1csc(-c2ccccc2)n1`, the half-inhibitory concentration (IC50) in test [1] turned out to be 11.2 µM; in test [2] it was 49.2 µM.
The matching figures for `COc1cccc2c1C(=O)c1c(O)c3c(c(O)c1C2=O)C[C@@](O)(C(=O)CO)C[C@@H]3O[C@H]1C[C@H](N)[C@H](O)[C@H](C)O1` [DOXORUBICIN]: less than 2.94 µM and less than 2.94 µM.
Turning to `CCOC(=O)c1sc(N(C(C)=O)N(C(C)=O)S(=O)(=O)c2ccc(C)cc2)nc1C`, the IC50 in test [1] and in [2] was greater than 57 µM in each case.
Take `Cc1ccc(S(=O)(=O)NNc2nc(-c3ccccc3)cs2)cc1`: the IC50 in [1] came to 9.16 µM; in [2], 9.07 µM. This compound gave an inhibition at 51 µM in test [5] of 100%. For the same compound, at 36.2 µM the inhibition in test [6] was 100%.
As for `CC(=O)N(c1nc(CCl)cs1)N(C(C)=O)S(=O)(=O)c1ccc(C)cc1`, the concentration for half-maximal inhibition (IC50) in test [1] and in test [2] was greater than 62.3 µM throughout.
Take `CC(=O)N(c1nc(-c2ccccc2)cs1)N(C(C)=O)S(=O)(=O)c1ccc(C)cc1`: the IC50 in test [1] and in test [2] was greater than 58.3 µM each time.
On to `Cc1ccc(S(=O)(=O)NNC(N)=S)cc1`, for which 72.5 µM produced 100% inhibition in test [7]. For the same compound, the IC50 in test [1] and in test [2] was 8.98 µM each time. This compound returned an inhibition at 102 µM in test [8] of 100%. This compound showed an inhibition at 44.2 µM in test [9] of 100%.
With `CCOC(=O)Cc1csc(N(NC(=O)c2csc(-c3ccccc3)n2)C(C)=O)n1`, the IC50 in test [1] and in test [2] was greater than 58.1 µM throughout.
Consider `CCOC(=O)c1sc(NNS(=O)(=O)c2ccc(C)cc2)nc1C`, for which the values for the IC50 in [1] and in test [2] were less than 4.51 µM and 4.68 µM, respectively. For the same compound, the inhibition at 35.2 µM in [10] and in [11] was 100% in each case.
Turning to `CC(=O)N(c1nc(C)cs1)N(C(C)=O)S(=O)(=O)c1ccc(C)cc1`, the concentration for half-maximal inhibition (IC50) in [1] stood at 7.36 µM; in [2] it was 7.63 µM. In addition, the inhibition at 34.1 µM in test [12] and in test [13] was 100% each time.
For `CC(=O)c1sc(NNS(=O)(=O)c2ccc(C)cc2)nc1C`, the IC50 in test [1] was 8.77 µM; in test [2] it was 9.84 µM. The compound further came in with an inhibition at 38.5 µM in [14] of 100%.
